Broadly, the IC50 is the point on the concentration scale where inhibition reaches its midpoint.

Consider 17 compounds from patent US20250152585A1, “PHARMACEUTICAL COMPOUND” (Duke Street Bio Limited, priority 2022, published 2025).

In assay [1] the target is T1, PARP2 (Homo sapiens, UniProt Q9UGN5).
T1 construct: host or cells: HEK293
The experiment in a line: NanoBRET cellular target occupancy assay, PARP2. It is filed as cell-based. Conditions: HEK293 cells transiently transfected with PARP2-NanoLuc fusion; tracer 2 nM; 2 hours at 37° C.; Kd by Cheng-Prussoff. From the text:
NanoBRET Cellular Target Occupancy Assay
On the technique in general: In BRET a luciferase serves as donor, and the signal depends on an acceptor being close.

Assay [2] addresses T2, PARP1 (Homo sapiens, UniProt P09874).
T2 construct: host or cells: HEK293
The experiment in a line: NanoBRET cellular target occupancy assay, PARP1. It is filed as cell-based. The conditions noted are these: for Kd: HEK293 cells transiently transfected with PARP1-NanoLuc fusion, tracer 11 nM, 2 hours at 37° C., Kd by Cheng-Prussoff; for Selectivity: NanoBRET, PARP1 over PARP2, Kd (PARP2)/Kd (PARP1).

Assay [3] deals with T3, full length N-terminally FLAG-tagged PARP1 (Homo sapiens, UniProt P09874). Description: PARP1 biochemical DELFIA assay (auto-PARylation). The arrangement: recombinant full length human N-terminally FLAG-tagged PARP1.
T3 sequence (P09874 whole entry, the tested form may be a part): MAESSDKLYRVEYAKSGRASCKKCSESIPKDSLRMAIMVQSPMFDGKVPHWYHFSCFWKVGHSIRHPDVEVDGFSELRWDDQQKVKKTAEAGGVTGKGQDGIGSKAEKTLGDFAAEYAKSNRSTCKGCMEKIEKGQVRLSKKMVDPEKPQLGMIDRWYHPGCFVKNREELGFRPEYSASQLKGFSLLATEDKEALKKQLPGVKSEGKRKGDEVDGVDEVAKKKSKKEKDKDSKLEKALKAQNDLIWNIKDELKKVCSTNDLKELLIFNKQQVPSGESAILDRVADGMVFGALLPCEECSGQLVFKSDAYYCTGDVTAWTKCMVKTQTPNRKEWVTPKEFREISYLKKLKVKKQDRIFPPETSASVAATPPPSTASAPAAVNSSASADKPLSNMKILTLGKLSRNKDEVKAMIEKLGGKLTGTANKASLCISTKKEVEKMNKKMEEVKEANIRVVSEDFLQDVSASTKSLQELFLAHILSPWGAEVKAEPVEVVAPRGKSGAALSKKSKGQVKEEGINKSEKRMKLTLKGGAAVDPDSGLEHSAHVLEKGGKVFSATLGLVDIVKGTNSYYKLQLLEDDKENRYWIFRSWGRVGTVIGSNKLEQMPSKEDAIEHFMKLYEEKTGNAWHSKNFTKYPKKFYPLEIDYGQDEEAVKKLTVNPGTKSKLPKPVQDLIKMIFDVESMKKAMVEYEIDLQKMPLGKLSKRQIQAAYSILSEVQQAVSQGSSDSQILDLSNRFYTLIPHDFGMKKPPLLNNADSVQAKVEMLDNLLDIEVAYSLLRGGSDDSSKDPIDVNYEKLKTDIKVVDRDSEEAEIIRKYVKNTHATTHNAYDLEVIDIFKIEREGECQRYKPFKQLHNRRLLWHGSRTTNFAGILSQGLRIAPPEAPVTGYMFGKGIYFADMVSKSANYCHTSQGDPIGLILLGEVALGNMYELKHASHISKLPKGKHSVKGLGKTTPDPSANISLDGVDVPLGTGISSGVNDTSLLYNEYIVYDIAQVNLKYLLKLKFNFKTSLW
Assay [4] concerns the target T4, N-terminally FLAG-tagged PARP2 (amino acids 1-583) (Homo sapiens, UniProt Q9UGN5).
T4 construct: N-terminally FLAG-tagged PARP2 (amino acids 1-583)
Description: PARP2 probe displacement HTRF assay. It is filed as binding. Conditions: binned Kd. As to the method: Data analysis was performed identical as for PARP1.
(In general: In TR-FRET formats the signal depends on donor and acceptor labels being close together.)

Assay [5] concerns the target T3, full length N-terminally FLAG-tagged PARP1. The experiment in a line: PARP1 probe displacement HTRF assay. The conditions noted are these: for Selectivity: PARP1 over PARP2, ratio Kd (PARP2)/Kd (PARP1); for Kd: binned Kd.
The mark [6] stands for this setting: binned IC50, PARP1 biochemical DELFIA assay.
The mark [7] stands for this setting: read-out: PARP1 HTRF, PARP1 probe displacement HTRF.
[8] abbreviates: binned IC50, biochemical auto-PARylation assay.
Where [9] appears, read: read-out: PARP1 HTRF, probe displacement HTRF.

Where two headings read alike, the source gives them in different places.

T4 sequence (Q9UGN5 whole entry, the tested form may be a part): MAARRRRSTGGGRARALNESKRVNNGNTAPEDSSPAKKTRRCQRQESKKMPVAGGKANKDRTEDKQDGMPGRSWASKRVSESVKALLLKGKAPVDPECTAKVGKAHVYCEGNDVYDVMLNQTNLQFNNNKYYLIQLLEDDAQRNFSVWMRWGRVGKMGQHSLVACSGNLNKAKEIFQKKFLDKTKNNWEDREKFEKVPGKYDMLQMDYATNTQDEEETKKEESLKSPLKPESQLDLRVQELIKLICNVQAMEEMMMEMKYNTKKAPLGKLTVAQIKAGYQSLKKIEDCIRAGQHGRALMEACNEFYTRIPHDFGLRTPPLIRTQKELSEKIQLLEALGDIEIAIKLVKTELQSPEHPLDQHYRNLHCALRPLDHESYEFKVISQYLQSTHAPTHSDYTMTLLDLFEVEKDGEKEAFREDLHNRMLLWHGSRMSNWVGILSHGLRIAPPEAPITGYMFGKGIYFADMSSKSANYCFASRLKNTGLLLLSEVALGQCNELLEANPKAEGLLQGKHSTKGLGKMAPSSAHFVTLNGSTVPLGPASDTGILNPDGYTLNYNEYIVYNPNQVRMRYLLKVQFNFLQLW
T1 sequence (Q9UGN5 whole entry): as the sequence (Q9UGN5 whole entry, the tested form may be a part) above
T2 sequence (P09874 whole entry): as the sequence (P09874 whole entry, the tested form may be a part) above

With `CNC(=O)c1ccc(N2CCC(N3CCC(c4nc5c(c(C(F)(F)F)cn5C)c(=O)[nH]4)C3)CC2)cn1` (racemic) [Compound 170rac], the Kd in assay [1] is 10 to 100 nM; in assay [2], < 10 nM; in assay [4] (PARP2 probe displacement HTRF), < 10 nM; in assay [5] (setting [7]) it was < 10 nM. The Selectivity result in assay [2] is on record as “+ (+ indicates a value of 10 to less than 50)”; in assay [5] (probe displacement HTRF), “− (− indicates a value of less than 10)”. For the same compound, in assay [3] (setting [6]), the IC50 is < 10 nM.
On to `CNC(=O)c1ccc(N2CCC(N3CCC(c4cc5ccc(F)cc5c(=O)[nH]4)C3)CC2)c(F)n1` (racemic) [Compound 174rac], for which the Kd in assay [1] is 1000 to 10000 nM; in assay [2], < 10 nM; in assay [4] (PARP2 probe displacement HTRF), 100 to 1000 nM; in assay [5] (setting [7]), < 10 nM. Moreover, the Selectivity entry in assay [2] and in assay [5] (probe displacement HTRF) was “+++ (+++ indicate a value of at least 100)” throughout. The IC50 in assay [3] (setting [6]) was < 10 nM.
Regarding `CNC(=O)c1ccc(N2CCC(N3CCC(c4cc5ccc(F)cc5c(=O)[nH]4)C3)CC2)c(Cl)n1` (racemic) [Compound 175rac], the Kd was 1000 to 10000 nM in assay [1], < 10 nM in assay [2], 100 to 1000 nM in assay [4] (PARP2 probe displacement HTRF) and < 10 nM in assay [5] (setting [7]). Moreover, the Selectivity result in assay [2] and in assay [5] (probe displacement HTRF) was “+++ (+++ indicate a value of at least 100)” throughout. In addition, in assay [3] (setting [6]), the IC50 was < 10 nM.
For `CCc1cc(Cl)c(C2CCN(C3CCN(c4ccc(C(=O)NC)nc4)CC3)C2)[nH]c1=O` (racemic) [Compound 255rac], the Kd was 1000 to 10000 nM in assay [1], < 10 nM in assay [2], 100 to 1000 nM in assay [4] (probe displacement HTRF) and < 10 nM in assay [5] (setting [9]). Further, the Selectivity entry is “+++ (+++ indicate a value of at least 100)” in assay [2] and “++ (++ indicates a value of 50 to less than 100)” in assay [5] (probe displacement HTRF). The IC50 in assay [3] (setting [8]) was < 10 nM.
As for `CNC(=O)c1ccc(N2CCC(N3CCC(c4[nH]c(=O)c5ccccc5c4F)C3)CC2)cn1` (racemic) [Compound 258rac], the Kd in assay [1] was 100 to 1000 nM; in assay [2], < 10 nM; in assay [4] (probe displacement HTRF) it was 100 to 1000 nM; in assay [5] (setting [9]), < 10 nM. Besides, the Selectivity entry in assay [2] and in assay [5] (probe displacement HTRF) was “+++ (+++ indicate a value of at least 100)” each time. The IC50 in assay [3] (setting [8]) is < 10 nM.
On to `CNC(=O)c1ccc(N2CCC(N3CCC(c4cc5ncc(F)cc5c(=O)[nH]4)C3)CC2)cn1` (racemic) [Compound 315rac], for which the Kd in assay [1] was 100 to 1000 nM; in assay [2] it was < 10 nM; in assay [4] (probe displacement HTRF), 100 to 1000 nM; in assay [5] (setting [9]) it was < 10 nM. Moreover, the Selectivity entry in assay [2] and in assay [5] (probe displacement HTRF) was “+++ (+++ indicate a value of at least 100)” throughout. For the same compound, in assay [3] (setting [8]), the IC50 is < 10 nM.
For the compound `CNC(=O)c1ccc(N2CCC(N3CCC(c4cc5ncc(F)cc5c(=O)[nH]4)C3)CC2)c(F)n1` (racemic) [Compound 324rac, 6-fluoro-5-(4-(3-(3-fluoro-5-oxo-5,6-dihydro-1,6-naphthyridin-7-yl)pyrrolidin-1-yl)piperidin-1-yl)-N-methylpicolinamide], the Kd in assay [1] was 1000 to 10000 nM; in assay [2], < 10 nM; in assay [4] (probe displacement HTRF), 100 to 1000 nM; in assay [5] (PARP1 HTRF, probe displacement HTRF), < 10 nM. Further, the Selectivity result in assay [2] and in assay [5] (probe displacement HTRF) was “+++ (+++ indicate a value of at least 100)” each time. Further, the half-maximal inhibitory concentration (IC50) in assay [3] (setting [8]) is < 10 nM.
For `CNC(=O)c1ccc(N2CCC(N3CCC(c4cc5ncc(Cl)cc5c(=O)[nH]4)C3)CC2)cn1` (racemic) [Compound 329rac], the Kd in assay [1] was 1000 to 10000 nM; in assay [2] it was < 10 nM; in assay [4] (probe displacement HTRF), 100 to 1000 nM; in assay [5] (setting [9]), < 10 nM. Further, the Selectivity entry in assay [2] and in assay [5] (probe displacement HTRF) was “+++ (+++ indicate a value of at least 100)” each time. The IC50 in assay [3] (setting [8]) was < 10 nM.
As for `CNC(=O)c1ccc(N2CCC(N3CCC(c4nc5ccccc5c(=O)[nH]4)C3)CC2)cn1` (single isomer, unassigned) [Compound 10b, N-methyl-5-(4-(3-(4-oxo-3,4-dihydroquinazolin-2-yl)pyrrolidin-1-yl)piperidin-1-yl)picolinamide], the Kd in assay [1] is 1000 to 10000 nM; in assay [2], < 10 nM; in assay [4] (PARP2 probe displacement HTRF), 100 to 1000 nM; in assay [5] (setting [7]), < 10 nM. Further, the Selectivity entry in assay [2] and in assay [5] (probe displacement HTRF) was “+++ (+++ indicate a value of at least 100)” in each case. The IC50 in assay [3] (setting [6]) was < 10 nM.
As for `CNC(=O)c1ccc(N2CCC(N3CCC(c4nc5ccc(F)cc5c(=O)[nH]4)C3)CC2)cn1` (single isomer, unassigned) [Compound 64b], the Kd in assay [1] was 100 to 1000 nM; in assay [2], < 10 nM; in assay [4] (PARP2 probe displacement HTRF) it was 100 to 1000 nM; in assay [5] (setting [7]), < 10 nM. Further, the Selectivity entry in assay [2] and in assay [5] (probe displacement HTRF) was “+++ (+++ indicate a value of at least 100)” each time. Besides, the IC50 in assay [3] (setting [6]) was < 10 nM.
Consider `CNC(=O)c1ccc(N2CCC(N3CCC(c4nc5ccc(Cl)cc5c(=O)[nH]4)C3)CC2)cn1` (single isomer, unassigned) [Compound 68a], for which the Kd was 1000 to 10000 nM in assay [1], < 10 nM in assay [2], 100 to 1000 nM in assay [4] (PARP2 probe displacement HTRF) and < 10 nM in assay [5] (setting [7]). Besides, the Selectivity entry in assay [2] and in assay [5] (probe displacement HTRF) was “+++ (+++ indicate a value of at least 100)” in each case. For the same compound, in assay [3] (setting [6]), the IC50 is < 10 nM.
Take `CCc1ccc(C2CCN(C3CCN(c4ccc(C(=O)NC)nc4)CC3)C2)[nH]c1=O` (single isomer, unassigned) [Compound 72b]: the Kd was 1000 to 10000 nM in assay [1], < 10 nM in assay [2], 100 to 1000 nM in assay [4] (PARP2 probe displacement HTRF) and < 10 nM in assay [5] (setting [7]). For the same compound, the Selectivity entry in assay [2] and in assay [5] (probe displacement HTRF) was “+++ (+++ indicate a value of at least 100)” in each case. Further, the IC50 in assay [3] (setting [6]) was < 10 nM.
In the case of `CNC(=O)c1ccc(N2CCC(N3CCC(c4nc5cccc(C(F)(F)F)c5c(=O)[nH]4)C3)CC2)cn1` (single isomer, unassigned) [Compound 86b], the Kd in assay [1] is 10 to 100 nM; in assay [2] it was < 10 nM; in assay [4] (PARP2 probe displacement HTRF), < 10 nM; in assay [5] (setting [7]), < 10 nM. For the same compound, the Selectivity result in assay [2] and in assay [5] (probe displacement HTRF) was “+ (+ indicates a value of 10 to less than 50)” throughout. Also, the IC50 in assay [3] (setting [6]) is < 10 nM.
In the case of `CNC(=O)c1ccc(N2CCC(N3CCC(c4cc5ccc(Cl)cc5c(=O)[nH]4)C3)CC2)cn1` (single isomer, unassigned) [Compound 129b], the Kd is 100 to 1000 nM in assay [1], < 10 nM in assay [2], 10 to 100 nM in assay [4] (PARP2 probe displacement HTRF) and < 10 nM in assay [5] (setting [7]). In addition, the Selectivity result in assay [2] and in assay [5] (probe displacement HTRF) was “+++ (+++ indicate a value of at least 100)” throughout. The IC50 in assay [3] (setting [6]) is < 10 nM.
`CNC(=O)c1ccc(N2CCC(N3CCC(c4cc5cccc(F)c5c(=O)[nH]4)C3)CC2)cn1` (single isomer, unassigned) [Compound 136b, 5-{4-[3-(8-fluoro-1-oxo-2H-isoquinolin-3-yl)pyrrolidin-1-yl]piperidin-1-yl}-N-methylpyridine-2-carboxamide]: the Kd was 100 to 1000 nM in assay [1], < 10 nM in assay [2], 10 to 100 nM in assay [4] (PARP2 probe displacement HTRF) and < 10 nM in assay [5] (setting [7]). Also, the Selectivity result in assay [2] and in assay [5] (probe displacement HTRF) was “+++ (+++ indicate a value of at least 100)” throughout. In addition, the IC50 in assay [3] (setting [6]) was < 10 nM.
Regarding `CNC(=O)c1ccc(N2CCC(N3CCC(c4cc5c(Cl)cccc5c(=O)[nH]4)C3)CC2)cn1` (single isomer, unassigned) [Compound 137b], the Kd in assay [1] is 100 to 1000 nM; in assay [2], < 10 nM; in assay [4] (PARP2 probe displacement HTRF) it was 10 to 100 nM; in assay [5] (setting [7]), < 10 nM. In addition, the Selectivity entry in assay [2] is on record as “+++ (+++ indicate a value of at least 100)”; in assay [5] (probe displacement HTRF) it was “+ (+ indicates a value of 10 to less than 50)”. Moreover, the IC50 in assay [3] (setting [6]) is < 10 nM.
As to `CCc1ccc(C2CCN(C3CCN(c4ccc(C(=O)NC)nc4F)CC3)C2)[nH]c1=O` (single isomer, unassigned) [Compound 151a, 5-(4-(3-(5-ethyl-6-oxo-1,6-dihydropyridin-2-yl)pyrrolidin-1-yl)piperidin-1-yl)-6-fluoro-N-methylpicolinamide], the Kd is > 10000 nM in assay [1]; < 10 nM in assay [2]; 100 to 1000 nM in assay [4] (PARP2 probe displacement HTRF); < 10 nM in assay [5] (PARP1 HTRF, PARP1 probe displacement HTRF). The Selectivity result in assay [2] and in assay [5] (probe displacement HTRF) was “+++ (+++ indicate a value of at least 100)” in each case. Moreover, the IC50 in assay [3] (setting [6]) is < 10 nM.
